In article PMC8143339, “PK/PD Modeling of the PDE7 Inhibitor—GRMS-55 in a Mouse Model of Autoimmune Hepatitis” (Pharmaceutics, 2021):
Values after ≈ are worked out from the molar mass of the structure shown. “Also recorded” adds a separate entry of the source. Read-outs that look alike come from different tables or passages of the source.

Columns and labels:
[1] = system: PDE3A; design: method as in PMID 31899535; settings: cited from earlier work
[2] = system: ConA-induced hepatitis; test: Preliminary pharmacological evaluation in ConA-induced hepatitis; type: in vivo, BALB/c mice; settings: 8 h after ConA 20 mg/kg IV; IP pretreatment: rolipram 10, BRL-50481 50, GRMS-55 50 mg/kg; vs vehicle control
Procedure: (§1) ConA was dissolved in sterile saline (2 mg·mL^−1). The studied compounds (GRMS-55, rolipram, and BRL-50481) were dissolved in a mixture of DMSO, PEG 400, and water for injection at a ratio of 25:25:50 (v/v/v). Mice were given an IP injection of the investigated compounds or the corresponding volume of vehicle alone and, thirty minutes later, intravenously (IV) administered with ConA solution. An additional control group received vehicle alone IP instead of the studied compounds followed by IV injection of sterile saline. ConA was given at a dose of 20 mg·kg^−1. Mice were exsanguinated at several time points post-ConA injection. Blood samples were allowed to clot for 0.5 h at room temperature and then centrifuged at 3000× g for 10 min to obtain the serum, which was stored at −20 °C until further analysis.
(§2) The influence of PDE inhibitors on the levels of inflammatory mediators and transaminases in ConA-treated mice was investigated in two separate experiments. In the preliminary study, the animals were pretreated IP with GRMS-55 at a dose of 50 mg·kg^−1, the PDE4-selective inhibitor rolipram at a dose of 10 mg·kg^−1, or the PDE7-selective inhibitor BRL-50481 at a dose of 50 mg·kg^−1. Doses of the investigated compounds were chosen based on the results of previous studies. Subsequently, mice were given an IV injection of ConA and sacrificed at 8 h following mitogen dosing. The levels of TNF-α, IL-6, and IFN-γ and the activities of ALT and AST in the mouse serum were measured. This preliminary experiment allowed comparing the activity of the studied PDE inhibitors in this AIH model and helped to select the doses of GRMS-55 for a subsequent pharmacodynamic study. In the final pharmacodynamic experiment, GRMS-55 was administered at two dose levels (50 and 100 mg·kg^−1) followed by ConA administration at a dose of 20 mg·kg^−1. Animals were sacrificed at various time points post-ConA dosing (1, 2, 4, 8 and 24 h). The levels of TNF-α, IL-1β, IL-4, IL-6, IL-10, IL-12, IL-17A, and IFN-γ were measured using a multiplex Luminex assay. In addition, the activities of ALT and AST in the mouse serum were assessed. The concentration–time profiles of the selected biomarkers obtained in this experiment combined with the results of pharmacokinetic analysis allowed the development of a semi-mechanistic PK/PD/disease progression model and the investigation of concentration–effect relationships of GRMS-55.
(§3) The serum samples from the preliminary pharmacological study were analyzed using ELISA tests according to the protocols provided by the manufacturers. The TNF-α concentrations were measured using the Mouse TNF-α Quantikine ELISA Kit (R&D Systems, Minneapolis, MN, USA), while the concentrations of IL-6 and IFN-gamma were quantified by ELISA kits manufactured by Cloud-Clone Corp. (Houston, TX, USA). The absorbance of samples was measured on a POLARstar Omega multi-mode microplate reader (BMG LABTECH, Ortenberg, Germany) set at 450 nm wavelength. TNF-α, IL-1β, IL-6, IL-4, IL-10, IL-12, IL-17A, and IFN-γ serum levels in samples from pharmacodynamic experiment were determined by a premixed Magnetic Luminex Assay (R&D Systems, Inc., Minneapolis, MN, USA) according to the manufacturer’s protocol. Serum AST and ALT activities were quantified on a chemistry analyzer BS-800 (Shenzhen Mindray Bio-medical Electronics Co., Ltd., Shenzhen, China).

[3] = system: paw edema in collagen-induced arthritis; design: method as in PMID 31899535; settings: rats with collagen-induced arthritis, PK/PD arthritis progression model; cited from earlier work
[4] = system: PDE1B; design: method as in PMID 31899535; settings: cited from earlier work
[5] = system: PDE4D; design: method as in PMID 31899535; settings: in vitro assay at concentrations up to 200 µM; cited from earlier work
[6] = system: PDE7A; test: in vitro PDE7A inhibition assay; type: biochemical; settings: ratio of IC50 values
[7] = design: method as in PMID 31899535; settings: cited from earlier work
[8] = system: TNF-α production; design: method as in PMID 31899535; settings: rat lipopolysaccharide-induced endotoxemia, PK/PD model; cited from earlier work
[9] = Assessment of emetogenicity: α2-adrenoceptor agonist-induced anesthesia (xylazine/ketamine); type: in vivo, male CD-1 mice; settings: doses up to 100 mg/kg IP
Procedure: Male CD-1 mice were anesthetized with xylazine (10 mg·kg^−1) and ketamine (80 mg·kg^−1) in saline for injection-administered IP. Fifteen minutes later, the animals were IP-administered with GRMS-55 at doses of 50 or 100 mg·kg^−1, rolipram at a dose of 10 mg·kg^−1, or the corresponding volume of vehicle and subsequently placed in a dorsal recumbency position. The return of the righting reflex (i.e., when the animal turned itself spontaneously to a prone position) was used as an endpoint to measure the duration of anesthesia. In this test, shortening of the sleeping time is a behavioral correlate of emesis.

[10] = system: PDE7A; settings: reported in previous publication; read-out: IC50 for PDE7A inhibition; cited from earlier work
[11] = system: ConA-induced hepatitis; test: Pharmacodynamic study and PK/PD/disease progression modeling in ConA-induced hepatitis; type: in vivo, female BALB/c mice; settings: for IC50: Mus musculus, serum concentration, PK/PD model, IP 50 or 100 mg/kg, ConA 20 mg/kg IV
Procedure: as §1, §2, §3
A PK/PD/disease progression model illustrated in Figure 1 was developed considering the mechanism of action of the investigated compound and the mechanisms of progression of ConA-induced hepatitis, i.e., the subsequent stages leading to the production and release of relevant biomarkers.
Moreover, possible interrelationships and interactions among the measured biomarkers were considered during the model building process. […]

In the case of `Cn1c(=O)c2c(nc(NCCc3ccccc3)n2CCCC(=O)NN=Cc2ccccc2O)n(C)c1=O` [GRMS-55, 4-(1,3-dimethyl-2,6-dioxo-8-(phenethylamino)-1,2,3,6-tetrahydro-7H-purin-7-yl)-N′-(2-hydroxybenzylidene)butanehydrazide], the “potency of PDE3A suppression” value [1] is given as “moderate”, the “effect on serum IL-6 concentration” value [2] is given as “decreased” and the “IC50, decrease of paw edema” value [3] is given as 0.26 µg/mL. For the same molecule, the “potency of PDE1B suppression” value [4] was “high”, the PDE4D inhibition [5] was “not found to inhibit; also recorded: not active” and the “times weaker PDE7A inhibitor than BRL-50481” value [6] was 3.5. For the same molecule, the “apparent volume of distribution at steady state” value ([7]; male Wistar rats) was about 7 L/kg, the half-life ([7]; male and female rats) was “approximately 20 min” and the “IC50, suppression of TNF-α production” value [8] was 1.06 µg/mL. For the same molecule, the “effect on sleeping time” value [9] was “did not affect”, the IC50 [10] was 7.3 µM and the “effect on serum IL-4 level” value ([11]; 1, 2 and 8 h post-ConA, both dose groups) was “decreased”. For the same molecule, the “effect on ALT and AST activities” value ([11]; 50 or 100 mg/kg IP) was “significant and prominent decrease”, the “effect on serum IL-12 level” value ([11]; 4 h post-ConA, 50 and 100 mg/kg IP) was “significantly decreased” and the “effect on serum IL-1β level” value ([11]; 8 h post-ConA, 50 and 100 mg/kg IP) was “significantly decreased”. The “effect on serum IL-17A concentration” value ([11]; 8 h post-ConA, both dose levels) was “decreased”, the IC50 ([11]; read-out: IC50_IFN-γ, concentration resulting in 50% of Imax of IFN-γ) was 12.3 µg/mL (≈ 24.4 µM) and the IC50 ([11]; read-out: IC50_IL-6, concentration resulting in 50% of Imax of IL-6) was 13.4 µg/mL (≈ 26.6 µM). The IC50 ([11]; read-out: IC50_TNF-α, concentration resulting in 50% of Imax of TNF-α) was 7.97 µg/mL (≈ 15.8 µM).
